Data published in article PMC7691401, “^68Ga, ^44Sc and ^177Lu-labeled AAZTA^5-PSMA-617: synthesis, radiolabeling, stability and cell binding compared to DOTA-PSMA-617 analogues” (EJNMMI Radiopharmacy and Chemistry, 2020).
Like-named read-outs stand apart in the source and are kept apart here.

Columns and labels:
[1] = tested on: PSMA-positive LNCaP cells; details: cited from earlier work
PSMA = biological target: T1, PSMA (Homo sapiens, UniProt Q04609); details: LNCaP cells, read-out: Ki ± SD, cited from earlier work
T1 construct: 10^5 LNCaP cells per well were incubated with 0.75 nM [^68Ga]Ga-PSMA-10; host or cells: LNCaP

[2] = tested on: PSMA-positive LNCaP cells; assay: Internalization studies in LNCaP cells; format: cell-based, human; details: for specific internalization or cell surface binding: PSMA-positive LNCaP cells
Experimental: (§1) The in vitro experiments were performed using the PSMA-positive LNCaP cell line (androgen-sensitive human lymph node metastatic lesion of prostatic adenocarcinoma, CRL-1740 [American Type Culture Collection]) (Benešová et al. [2015]). For negative control, PSMA-PC3 cells (bone metastasis of a grade IV prostatic adenocarcinoma, ATCC CRL-1435) were used (Eder et al. [2012a]). The cells were cultured in RPMI1640 medium supplemented with 10% fetal calf serum and L-glutamine and incubated at 37 °C in an environment of humidified air containing 5% CO2. The cells were harvested using trypsin-ethylenediaminetetraacetic acid (trypsin-EDTA; 0.05% trypsin, 0.02% EDTA, all from PAN Biotech).
For internalization studies 10^5 LNCaP or PC3 cells were seeded in poly(L-lysine)-coated 24-well cell culture plates at 37 °C in an environment of humidified air containing 5% CO2 for 24 h. (Mier et al. [2007]). The medium is removed and 250 μl of radiolabeled 30 nM AAZTA^5-PSMA is replaced for 45 min. One plate is being incubated at 37 °C and the second one at 4 °C to inhibit the internalization. The specificity of the ligands is proofed by addition 500 μM of 2-(phosphonomethyl)-pentanedioic acid (2-PMPA, Axxora, Loerrach, Germany). After incubation, the cells were washed three times with 1 ml ice cold PBS. To determine the surface-bound activity cells were incubated twice with 0.5 ml of glycine-HCl in PBS (50 mM, pH 2.8) each for 5 min at room temperature. Both washing steps were collected for measuring with a gamma counter (Packard Cobra II, GMI, Minnesota, USA). Before lysating the cells with 0.5 mL of 0.3 M NaOH to determine the internalized fraction, they were once washed with 1 ml ice cold PBS (Eder et al. [2012a]).

[3] = parameters: method as in Sinnes et al. [2019]; details: HS, ref Sinnes et al. [2019], in % (unit assumed), cited from earlier work
[4] = parameters: method as in Sinnes et al. [2019]; details: ref Sinnes et al. [2019], in % (unit assumed), cited from earlier work
[5] = parameters: method as in Sinnes et al. [2019]; details: PBS, ref Sinnes et al. [2019], in % (unit assumed), cited from earlier work
PC3 cells = assay: Internalization studies in PC3 cells (negative control); format: cell-based, human; details: PSMA-negative PC3 cells
Experimental: as §1
For internalization studies 10^5 LNCaP or PC3 cells were seeded in poly(L-lysine)-coated 24-well cell culture plates at 37 °C in an environment of humidified air containing 5% CO2 for 24 h. (Mier et al. [2007]). The medium is removed and 250 μl of radiolabeled 30 nM AAZTA^5-PSMA is replaced for 45 min. One plate is being incubated at 37 °C and the second one at 4 °C to inhibit the internalization. The specificity of the ligands is proofed by addition 500 μM of 2-(phosphonomethyl)-pentanedioic acid (2-PMPA, Axxora, Loerrach, Germany). After incubation, the cells were washed three times with 1 ml ice cold PBS. […]

[6] = LNCaP cells, ref Benešová et al. [2015]

T1 sequence (Q04609 whole entry): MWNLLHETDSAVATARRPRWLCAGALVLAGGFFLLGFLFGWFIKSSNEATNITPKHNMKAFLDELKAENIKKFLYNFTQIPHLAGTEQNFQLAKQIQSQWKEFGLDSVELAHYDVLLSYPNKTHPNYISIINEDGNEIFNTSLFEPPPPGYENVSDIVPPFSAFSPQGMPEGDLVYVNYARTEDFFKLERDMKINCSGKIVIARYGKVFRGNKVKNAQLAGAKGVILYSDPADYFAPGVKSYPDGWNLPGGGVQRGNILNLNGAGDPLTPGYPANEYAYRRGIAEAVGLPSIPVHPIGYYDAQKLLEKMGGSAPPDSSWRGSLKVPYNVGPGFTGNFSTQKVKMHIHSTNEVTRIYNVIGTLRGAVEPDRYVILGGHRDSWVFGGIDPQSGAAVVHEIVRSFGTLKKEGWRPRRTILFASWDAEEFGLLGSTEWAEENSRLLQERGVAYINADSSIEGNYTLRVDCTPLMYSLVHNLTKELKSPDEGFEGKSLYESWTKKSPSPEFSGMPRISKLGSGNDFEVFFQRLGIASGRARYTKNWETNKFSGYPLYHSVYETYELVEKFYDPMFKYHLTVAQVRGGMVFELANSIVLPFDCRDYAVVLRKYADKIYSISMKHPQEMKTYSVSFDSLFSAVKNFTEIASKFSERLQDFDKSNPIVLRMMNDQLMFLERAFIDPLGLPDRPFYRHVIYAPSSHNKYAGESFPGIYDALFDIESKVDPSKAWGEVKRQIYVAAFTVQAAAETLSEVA

Compound: O=C([O-])CN(CCN(CC(=O)[O-])Cc1cc(CCC(=O)NCCCCCC(=O)NCCCC[C@H](NC(=O)N[C@@H](CCC(=O)O)C(=O)O)C(=O)O)ccc1[O-])Cc1cc(CCC(=O)O)ccc1[O-].[68Ga+3].[OH3+] [[^nat/68Ga]Ga-PSMA-11]
- Internalization ± SD [1, 6]: 9.5 ± 2.6 %IA/10^6 cells
- Ki (PSMA; ref Eder et al. [2012a]): 12 ± 2.8 nM

Compound: O=C(O)CCC(NC(=O)NC(CCCCNC(=O)C(Cc1ccc2ccccc2c1)NC(=O)C1CCC(CNC(=O)CN2CCN(CC(=O)O)CCN(CC(=O)O)CCN(CC(=O)O)CC2)CC1)C(=O)O)C(=O)O.[Ga+3] (stereo not drawn) [[^nat/68Ga]Ga-PSMA-617]
- %internalization / total cellular activity ratio [1, 6]: around 45%
- Internalization ± SD [1, 6]: 17.7 ± 4.4 %IA/10^6 cells
- %internalization / total cellular activity ratio ([1]; LNCaP cells, ref Benešová et al. [2015], listed as [^68Ga]Ga-DOTA-PSMA-617): 47%
- Ki (PSMA; ref Benešová et al. [2015]): 6.4 ± 1 nM

Compound: O=C(O)CCC(NC(=O)NC(CCCCNC(=O)C(Cc1ccc2ccccc2c1)NC(=O)C1CCC(CNC(=O)CN2CCN(CC(=O)O)CCN(CC(=O)O)CCN(CC(=O)O)CC2)CC1)C(=O)O)C(=O)O.[Lu+3] (stereo not drawn) [[^nat/177Lu]Lu-PSMA-617]
- Internalization ± SD [1, 6]: 17.5 ± 3.1 %IA/10^6 cells
- %internalization / total cellular activity ratio ([1]; ref Umbricht et al. [2017]): 10–15%
- %internalization / total cellular activity ratio ([2]; LNCaP cells, 37 °C, surface versus internalized activity, this assay): 27%
- Ki (PSMA; ref Benešová et al. [2015]): 6.9 ± 1.3 nM

Compound: O=C(O)CCCCC1(N(CC(=O)O)CC(=O)O)CN(CC(=O)O)CCN(CC(=O)O)C1.[68Ga+3] [[^68Ga]Ga-AAZTA^5]
- Stability values ([3]; 0.5 h): 93.0 ± 0.8
- Stability values ([3]; 1 h): 92.7 ± 1.3
- Stability values ([3]; 2 h): 85.3 ± 3.4
- Stability values ([4]; DTPA, 0.5 h): 84.3 ± 0.9
- Stability values ([4]; DTPA, 1 h): 78.0 ± 1.4
- Stability values ([4]; DTPA, 2 h): 45.7 ± 1.3
- Stability values ([4]; EDTA, 0.5 h): 93.0 ± 0.2
- Stability values ([4]; EDTA, 1 h): 50.3 ± 7.4
- Stability values ([4]; EDTA, 2 h): 49.5 ± 2.5
- Stability values ([5]; 0.5 h): 97.5 ± 1.0
- Stability values ([5]; 1 h): 88.7 ± 0.5
- Stability values ([5]; 2 h): 78.5 ± 4.5

Compound: O=C(O)CCC(NC(=O)NC(CCCCNC(=O)C(Cc1ccc2ccccc2c1)NC(=O)C1CCC(CNC(=O)CN2CCN(CC(=O)O)CCN(CC(=O)O)CCN(CC(=O)O)CC2)CC1)C(=O)O)C(=O)O.[Sc+3] (stereo not drawn) [[^nat/44Sc]Sc-PSMA-617]
- Internalization ± SD ([1]; LNCaP cells, ref Eppard et al. [2017]): 15.8 ± 2.1 %IA/10^6 cells
- Ki (PSMA; ref Eppard et al. [2017]): 4.7 ± 0.8 nM

Compound: O=C(O)CCCCC1(N(CC(=O)O)CC(=O)O)CN(CC(=O)O)CCN(CC(=O)O)C1.[177Lu+3] [^177Lu AAZTA^5]
- Stability values ([3]; 1 h): 99.8 ± 0.1
- Stability values ([3]; 2 h): 99.7 ± 0.1
- Stability values ([3]; 24 h): 99.9 ± 0.1
- Stability values ([3]; 7 d): 82.5 ± 3.2
- Stability values ([4]; DTPA, 1 h): 99.1 ± 0.2
- Stability values ([4]; DTPA, 2 h): 99.1 ± 0.1
- Stability values ([4]; DTPA, 24 h): 80.4 ± 5.4
- Stability values ([4]; DTPA, 7 d): 59.0 ± 14.3
- Stability values ([4]; EDTA, 1 h): 98.9 ± 0.2
- Stability values ([4]; EDTA, 2 h): 97.9 ± 0.3
- Stability values ([4]; EDTA, 24 h): 79.2 ± 2.9
- Stability values ([4]; EDTA, 7 d): 48.9 ± 1.5
- specific internalization or cell surface binding [2]: no surface activity or internalization
- Stability values ([5]; 1 h): 97.8 ± 0.5
- Stability values ([5]; 2 h): 98.6 ± 0.4
- Stability values ([5]; 24 h): 99.1 ± 0.6
- Stability values ([5]; 7 d): 96.0 ± 0.8
- specific internalization or cell surface binding (PC3 cells): no surface activity or internalization

Compound: O=C(O)CCCCC1(N(CC(=O)O)CC(=O)O)CN(CC(=O)O)CCN(CC(=O)O)C1.[44Sc+3] [^44Sc AAZTA^5]
- Stability values ([3]; 1 h): 93.7 ± 0.9
- Stability values ([3]; 4 h): 94.3 ± 1.7
- Stability values ([3]; 8 h): 93.2 ± 1.1
- Stability values ([3]; 24 h): 91.3 ± 1.8
- Stability values ([4]; DTPA, 1 h): 94.3 ± 0.9
- Stability values ([4]; DTPA, 4 h): 92.5 ± 0.5
- Stability values ([4]; DTPA, 8 h): 93.8 ± 1.2
- Stability values ([4]; DTPA, 24 h): 93.4 ± 1.1
- Stability values ([4]; EDTA, 1 h): 93.7 ± 1.3
- Stability values ([4]; EDTA, 4 h): 90.0 ± 3.2
- Stability values ([4]; EDTA, 8 h): 92.3 ± 2.1
- Stability values ([4]; EDTA, 24 h): 91.9 ± 1.8
- specific internalization or cell surface binding [2]: no surface activity or internalization
- Stability values ([5]; 1 h): 95.3 ± 0.9
- Stability values ([5]; 4 h): 92.7 ± 1.3
- Stability values ([5]; 8 h): 95.9 ± 1.2
- Stability values ([5]; 24 h): 96.0 ± 0.8
- specific internalization or cell surface binding (PC3 cells): no surface activity or internalization
